In US20250179047A1, “5-[7-(3,4-DIHYDRO-1H-ISOQUINOLINE-2-CARBONYL)-1,2,3,4 TETRAHYDROISOQUINOLIN-6-YL]-1H-PYRROLE-3-CARBOXAMIDE DERIVATIVES, PHARMACEUTICAL COMPOSITIONS CONTAINING THEM AND THEIR USES AS PRO-APOPTOTIC AGENTS” (LES LABORATOIRES SERVIER, priority 2022, published 2025):
Read-outs that look alike come from different tables or passages of the source.

Tests used:
BCL2 G101V [1] = assay: TR-FRET competitive binding assay, BCL2 G101V; parameters: species or system human; details: for TR_FRET EKI G101V/WT selectivty ratio: ratio Ki BCL2 G101V / Ki BCL2 WT; for TR_FRET EKI G101V/WT selectivty: ratio of Ki BCL2 G101V to BCL2 WT
How it was run: (§1)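 Terbium-labelled N-terminal Halo-fusion BCL2 or BCLXL (E. coli), 0.5 nM, competed against fluorescein-labelled PUMA peptide (2 or 20 nM) for 2 h at 23° C in 50 mM Hepes pH 7.5, 150 mM NaCl, 5% DMSO. TR-FRET 520/495 nm ratio gave IC50 by four-parameter fit; Ki derived from IC50.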

BCL2 G101V [2] = target: BCL2 G101V (Homo sapiens, UniProt P10415, G101V); assay: TR-FRET competitive binding assay, BCL2 G101V; details: BCL2 G101V; Ki determined from IC50; read-out: TR_FRET EKI_Bcl2 G101V
How it was run: as §1

KMS-12-PE Bcl-2 G101V = assay: In vitro cytotoxicity CellTiter-Glo 48 h, KMS-12-PE Bcl-2 G101V; type: cell-based; details: for Ratio (G101V/WT): C50 KMS-12-PE Bcl-2 G101V over C50 KMS-12-PE Bcl-2 WT; for IC50: Homo sapiens, KMS-12-PE, 48 h, CellTiter-Glo, C50 = concentration needed to reach 50% of the cellular viability
How it was run: (§2)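 KMS-12-PE myeloma cells were lentivirally transduced with wild-type or G101V-mutant Bcl-2 and sorted by TagRFP. They were exposed to compounds as 11-point dose responses for 48 h at 37 °C, 5% CO2. Viability was read by CellTiter-Glo ATP luminescence, and C50 was the concentration giving 50% viability.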

BCL2 WT = BCL2 WT (Homo sapiens (Human), UniProt P10415); assay: TR-FRET competitive binding assay, BCL2 WT
How it was run: as §1

BCLXL WT = BCLXL WT (Homo sapiens (Human), UniProt Q07817); assay: TR-FRET competitive binding assay, BCLXL WT; details: for Ki: BCLXL WT, Ki determined from IC50, read-out: TR_FRET EKI BclxL; for TR_FRET EKI BCLxL/WT selectivty ratio: ratio Ki BCLxL / Ki BCL2 WT; for TR_FRET EKI BCLxL/WT selectivty: ratio of Ki BCLxL to BCL2 WT
Sequence of BCLXL WT (Q07817 other isoform, or with tags, fused parts or gaps): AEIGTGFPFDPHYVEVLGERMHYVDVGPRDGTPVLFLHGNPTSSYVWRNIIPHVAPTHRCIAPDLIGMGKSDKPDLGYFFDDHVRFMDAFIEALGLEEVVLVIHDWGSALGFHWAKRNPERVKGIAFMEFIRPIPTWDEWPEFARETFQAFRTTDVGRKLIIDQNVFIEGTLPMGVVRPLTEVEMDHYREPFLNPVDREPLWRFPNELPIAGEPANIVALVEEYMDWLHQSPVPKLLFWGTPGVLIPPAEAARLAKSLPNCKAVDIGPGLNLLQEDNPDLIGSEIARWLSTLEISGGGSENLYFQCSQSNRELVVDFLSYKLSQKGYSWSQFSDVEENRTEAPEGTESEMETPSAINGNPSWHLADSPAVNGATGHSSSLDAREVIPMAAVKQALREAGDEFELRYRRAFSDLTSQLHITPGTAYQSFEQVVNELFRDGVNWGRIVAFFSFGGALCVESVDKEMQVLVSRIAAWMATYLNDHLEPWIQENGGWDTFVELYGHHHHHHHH
How it was run: as §1

BCL2 D103Y = BCL2 D103Y (Homo sapiens, UniProt P10415, D103Y); assay: TR-FRET competitive binding assay, BCL2 D103Y; details: Ki determined from IC50, read-out: TR_FRET EKI_Bcl2 D103Y
How it was run: as §1

[3] = Pharmacokinetics in SCID mice; type: in vivo; details: 25 mg/kg IV bolus; for PK parameters Cinf: concentration at the end of bolus administration; for AUC: mouse, blood, area under curve over 24 h, read-out: PK parameters AUC24
Protocol: (§3) Pharmacokinetic (PK) and platelet toxicity were investigated in SCID mice. Compounds were administered at 25 mg/kg by IV bolus, and formulated in PEG/Ethanol/NaCl 0.9% (40/10/50 v/v/v).
(§4) Blood samples (3 animals/time point and 3 time points/animal) were collected over 24 h after dosing: 0.05 h, 0.5 h, 1 h, 3 h, 6 h and 24 h for PK and 6 h and 24 h for platelets.
(§5) PK samples were analyzed by liquid chromatography using tandem mass spectrometry detection (LC-MS/MS) and platelet count (109/L) was measured using an hematology analyzer. Percentage of platelet loss was calculated at both time points (T+6 h and 24 h) as compared to a control group of 6 animals. PK parameters (Cinf and AUC24, which correspond to the concentration at the end of bolus administration and the area under curve over 24 h, respectively) were also determined using a non-compartmental analysis.

platelets = assay: Platelet depletion in SCID mice; type: in vivo; details: 25 mg/kg IV bolus, vs control group; for Platelet loss (%) 6 h: 6 h after dosing; for Platelet loss (%) 24 h: 24 h after dosing
Protocol: as §3, §4, §5

KMS-12-PE Bcl-2 WT = assay: In vitro cytotoxicity CellTiter-Glo 48 h, KMS-12-PE Bcl-2 WT; type: cell-based; details: Homo sapiens, KMS-12-PE, C50 = concentration needed to reach 50% of the cellular viability
How it was run: as §2

BCL2 F104I = BCL2 F104I (Homo sapiens, UniProt P10415, F104I); assay: TR-FRET competitive binding assay, BCL2 F104I; details: Ki determined from IC50, read-out: TR_FRET EKI_Bcl2 F104I
How it was run: as §1

BCL2 D111A = BCL2 D111A (Homo sapiens, UniProt P10415, D111A); assay: TR-FRET competitive binding assay, BCL2 D111A; details: Ki determined from IC50, read-out: TR_FRET EKI_Bcl2 D111A
How it was run: as §1

[4] = Ki determined from IC50, read-out: TR_FRET EKI_Bcl2 WT
[5] = Ki determined from IC50, read-out: TR_FRET EKI_Bcl2

SMILES	TR_FRET EKI G101V/WT selectivty ratio (BCL2 G101V [1])	Ki (BCL2 G101V [2])	Ratio (G101V/WT) (KMS-12-PE Bcl-2 G101V)	IC50 (KMS-12-PE Bcl-2 G101V)	Ki (BCL2 WT; [4])	Ki (BCLXL WT)	TR_FRET EKI BCLxL/WT selectivty ratio (BCLXL WT)	Ki (BCL2 D103Y)	PK parameters Cinf [3]	AUC [3]	Platelet loss (%) 6 h (platelets)	Platelet loss (%) 24 h (platelets)	IC50 (KMS-12-PE Bcl-2 WT)	Ki (BCL2 F104I)	Ki (BCL2 D111A)	TR_FRET EKI G101V/WT selectivty (BCL2 G101V [1])	Ki (BCL2 WT; [5])	TR_FRET EKI BCLxL/WT selectivty (BCLXL WT)
Cc1c(N(C(=O)c2cc(-c3cc4c(cc3C(=O)N3Cc5ccccc5C[C@H]3C)CN(S(=O)(=O)Cc3ccccc3)CC4)n(C)c2C)c2ccc(O)cc2)cc(C#N)n1C [Example 14, 5-[2-benzylsulfonyl-7-[(3R)-3-methyl-3,4-dihydro-1H-isoquinoline-2-carbonyl]-3,4-dihydro-1H-isoquinolin-6-yl]-N-(5-cyano-1,2-dimethyl-pyrrol-3-yl)-N-(4-hydroxyphenyl)-1,2-dimethyl-pyrrole-3-carboxamide]	5.4	4.9 nM	8.86	0.0852 µM	0.9 nM	53 nM	58.9	3.7 nM	13.5 µM	18.5 µM·h	16.1%	12.5%	0.0096 µM	–	–	–	–	–
Cc1c(N(C(=O)c2cc(-c3cc4c(cc3C(=O)N3Cc5ccccc5C[C@H]3C)CN(C(=O)Cc3ccc(N5CCN(CC(F)(F)F)CC5)cc3)CC4)n(C)c2C)c2ccc(O)cc2)cc(C#N)n1C [Example 23, N-(5-cyano-1,2-dimethyl-1H-pyrrol-3-yl)-N-(4-hydroxyphenyl)-1,2-dimethyl-5-{7-[(3R)-3-methyl-1,2,3,4-tetrahydroisoquinoline-2-carbonyl]-2-(2-{4-[4-(2,2,2-trifluoroethyl)piperazin-1-yl]phenyl}acetyl)-1,2,3,4-tetrahydroisoquinolin-6-yl}-1H-pyrrole-3-carboxamide]	6.0	3.5 nM	9.34	0.0898 µM	0.58 nM	48.5 nM	83.6	1.09 nM	6.8 µM	10.8 µM·h	19.6%	12.8%	0.0096 µM	19.7 nM	1.54 nM	–	–	–
Cc1c(N(C(=O)c2cc(-c3cc4c(cc3C(=O)N3Cc5ccccc5C[C@H]3C)CN(C(=O)Cc3ccc(C5CCN(CCF)CC5)c(F)c3)CC4)n(C)c2C)c2ccc(O)cc2)cc(C#N)n1C [Example 28, N-(5-cyano-1,2-dimethylpyrrol-3-yl)-5-[2-(2-{3-fluoro-4-[1-(2-fluoroethyl)piperidin-4-yl]phenyl}acetyl)-7-{[(3R)-3-methyl-3,4-dihydro-1H-isoquinolin-2-yl]carbonyl}-3,4-dihydro-1H-isoquinolin-6-yl]-N-(4-hydroxyphenyl)-1,2-dimethylpyrrole-3-carboxamide]	4.8	1.2 nM	6.51	0.0643 µM	0.25 nM	5.6 nM	22.4	0.34 nM	18.2 µM	38.3 µM·h	23.2%	15.2%	0.0099 µM	6.47 nM	0.59 nM	–	–	–
COc1ccc(CC(=O)N2CCc3cc(-c4cc(C(=O)N(c5ccc(O)cc5)c5cc(C#N)n(C)c5C)c(C)n4C)c(C(=O)N4Cc5ccccc5C[C@H]4CN4CCCCC4)cc3C2)c(F)c1 [Example 33, N-(5-cyano-1,2-dimethylpyrrol-3-yl)-5-{2-[2-(2-fluoro-4-methoxyphenyl)acetyl]-7-{[(3S)-3-(piperidin-1-ylmethyl)-3,4-dihydro-1H-isoquinolin-2-yl]carbonyl}-3,4-dihydro-1H-isoquinolin-6-yl}-N-(4-hydroxyphenyl)-1,2-dimethylpyrrole-3-carboxamide]	3.3	0.5 nM	9.09	0.0491 µM	0.15 nM	3.7 nM	24.7	0.22 nM	8.4 µM	12.6 µM·h	33.5%	22.5%	0.0054 µM	0.5 nM	0.1 nM	–	–	–
Cc1c(N(C(=O)c2cc(-c3cc4c(cc3C(=O)N3Cc5ccccc5C[C@H]3CN3CCCCC3)CN(C(=O)Cc3ccc(OCCN5CCOCC5(C)C)cc3)CC4)n(C)c2C)c2ccc(O)cc2)cc(C#N)n1C [Example 148, N-(5-cyano-1,2-dimethylpyrrol-3-yl)-5-[2-(2-{4-[2-(3,3-dimethylmorpholin-4-yl)ethoxy]phenyl}acetyl)-7-{[(3S)-3-(piperidin-1-ylmethyl)-3,4-dihydro-1H-isoquinolin-2-yl]carbonyl}-3,4-dihydro-1H-isoquinolin-6-yl]-N-(4-hydroxyphenyl)-1,2-dimethylpyrrole-3-carboxamide]	4.2	0.3 nM	4.9286	0.0345 µM	0.06 nM	1.5 nM	25.0	0.18 nM	–	–	–	–	0.007 µM	0.29 nM	0.15 nM	–	–	–
Cc1c(N(C(=O)c2cc(-c3cc4c(cc3C(=O)N3Cc5ccccc5C[C@H]3CN(C(C)C)C(C)C)CN(C(=O)Cc3ccc(OCCN5CCOCC5)cc3F)CC4)n(C)c2C)c2ccc(O)cc2)cc(C#N)n1C [Example 152, N-(5-cyano-1,2-dimethylpyrrol-3-yl)-5-(7-{[(3S)-3-[(diisopropylamino)methyl]-3,4-dihydro-1H-isoquinolin-2-yl]carbonyl}-2-(2-{2-fluoro-4-[2-(morpholin-4-yl)ethoxy]phenyl}acetyl)-3,4-dihydro-1H-isoquinolin-6-yl)-N-(4-hydroxyphenyl)-1,2-dimethylpyrrole-3-carboxamide]	6.9	1.1 nM	3.5238	0.037 µM	0.16 nM	3.9 nM	24.4	0.41 nM	–	–	–	–	0.0105 µM	0.64 nM	0.36 nM	–	–	–
Cc1c(C(=O)N(c2ccc(O)cc2)c2cnn(C(F)F)c2)cc(-c2cc3c(cc2C(=O)N2Cc4ccccc4C[C@H]2C)CN(C(=O)Cc2ccc(OCCN4CCOCC4)cc2)CC3)n1C [Example 228, N-[1-(difluoromethyl)pyrazol-4-yl]-5-[2-[2-[4-(2-morpholinoethoxy)phenyl]acetyl]-7-[(3R)-3-methyl-3,4-dihydro-1H-isoquinoline-2-carbonyl]-3,4-dihydro-1H-isoquinolin-6-yl]-N-(4-hydroxyphenyl)-1,2-dimethyl-pyrrole-3-carboxamide]	–	0.84 nM	11.0	0.161 µM	–	14.9 nM	–	0.21 nM	–	–	–	–	0.0146 µM	1.6 nM	0.2 nM	14	0.06 nM	248.3
Cc1c(N(C(=O)c2cc(-c3cc4c(cc3C(=O)N3Cc5ccccc5C[C@H]3CN3CCCCC3)CN(C(=O)Cc3ccc(OCCN5CCOCC5)cc3F)CC4)n(C)c2C)c2ccc(O)cc2)cc(C#N)n1C [Example 229]	–	0.22 nM	4.4	0.0222 µM	–	1.8 nM	–	0.11 nM	–	–	–	–	0.00502 µM	0.164 nM	0.1 nM	5.5	0.04 nM	45
